Molecular target: T1, human Edg-1 receptor (Homo sapiens, UniProt P21453)
T1 construct: expressed in transfected cells; membrane preparation
Assay: GTP-γ-S assay using human Edg-1 receptors (scintillation proximity assay, membrane preparation from CHO Flp-In cell line)
Format: biochemical
Conditions: example compound at 10 μM; relative to 10 μM S1P; GTP-γ-S SPA, human Edg-1 membranes
Source text: Determination of the Pharmacological Activity A) GTP-γ-S Assay Using Human Edg-1 Receptors
In order to determine the Edg-1 receptor activation by the compounds of the invention, a GTP-γ-S (guanosine 5′-[γ-thio]triphosphate) assay for G-protein coupled receptor binding based on the scintillation proximity assay principle was used, employing a cell membrane preparation from a CHO Flp-In cell line which constitutively overexpresses the human Edg-1 receptor.
The Flp-In™ expression system (Invitrogen, cat. no. K6010-01) allows the generation of stable mammalian cell lines into which the gene of interest has been integrated through homologous recombination at a specific genomic location called Flp Recombination Target (FRT) site by means of a Flp recombinase encoded by the pOG44 expression plasmid. The integration of the pcDNA5/FRT expression construct into the Flp-In host cell line genome results in the transcription of the gene of interest. The stably transfected cells become hygromycin-resistant.
One day prior to transfection, 200 000 Flp-In-CHO cells were seeded in Ham F-12 medium (Invitrogen, cat. no. 31765) supplemented with 10% fetal calf serum (FCS; Perbio Science, cat. no. SH30068.03) in a 6-well plate and incubated at 37° C./5% CO2 overnight. Using the FuGENE® 6 transfection reagent (Roche, cat. no. 11988387001), cells were cotransfected with the Flp recombinase expression plasmid pOG44 and a modified plasmid additionally containing the edg-1 gene (accession no. NM_001400) termed as pcDNA5-FRT-TO_nFLAG_DEST-EDG-1 with a 9:1 ratio. To obtain the modified pcDNA5-FRT-TO_nFLAG_DEST plasmid, the Invitrogen plasmid pcDNA5/FRT/TO (Invitrogen, cat. no. V6520-20) was adapted to the Gateway® (Invitrogen) cloning system by inserting a Gateway cassette containing attR recombination sites flanking a ccdB gene and a chloramphenicol-resistance gene (Gateway conversion system, Invitrogen, cat. no. 11828-029). In addition a FLAG tag epitope was added before the 5′ att recombination site to allow recombinant expression of N-terminally FLAG-tagged proteins.
For the transfection of one well, 1.08 μg of pOG44 and 0.12 μg of pcDNA5-FRT-TO_nFLAG_DEST-EDG-1 were mixed to 100 μl of serum-free Ham F-12 medium containing 6 μl of FuGENE® 6 transfection reagent. After 20 min of incubation, the transfection reagent/DNA complex was distributed dropwise on the cells. The cells were incubated for 24 h at 37° C. Then the cells from 3 wells each were transferred to a T75 flask (Greiner Cellstar®, cat. no. 658175) containing Ham F-12 medium supplemented with 10% of FCS but without antibiotic and were incubated another 24 h. 48 h after transfection, the medium was replaced by selection medium (Ham F-12 supplemented with 10% of FCS and 300 μg/ml of hygromycin B (Invitrogen, cat. no. 10687-010)). The medium was exchanged every 2 to 3 days until a resistant population of cells had grown. […] After 2 weeks of selection, the cells were transferred into T175 flasks (Greiner Cellstar®, cat. no. 660175) and cultivated for batch production. Cells were harvested from the culture flasks by short treatment (2 to 5 min) with Accutase (PAA, cat. no. L11-007), resuspended in selection medium (see above) and centrifuged at 200×g for 5 min. Cells were resuspended in a mixture of 90% of FCS and 10% of dimethylsulfoxide and stored frozen in liquid nitrogen.
A membrane preparation was obtained by standard methods from the afore-described CHO Flp-In cell line constitutively overexpressing the human Edg-1 receptor. Briefly, the cryopreserved cells were taken in culture and grown until confluency in T175 cell culture flasks (Becton Dickinson, cat. no. 35 5001). […]

T1 sequence (P21453 whole entry): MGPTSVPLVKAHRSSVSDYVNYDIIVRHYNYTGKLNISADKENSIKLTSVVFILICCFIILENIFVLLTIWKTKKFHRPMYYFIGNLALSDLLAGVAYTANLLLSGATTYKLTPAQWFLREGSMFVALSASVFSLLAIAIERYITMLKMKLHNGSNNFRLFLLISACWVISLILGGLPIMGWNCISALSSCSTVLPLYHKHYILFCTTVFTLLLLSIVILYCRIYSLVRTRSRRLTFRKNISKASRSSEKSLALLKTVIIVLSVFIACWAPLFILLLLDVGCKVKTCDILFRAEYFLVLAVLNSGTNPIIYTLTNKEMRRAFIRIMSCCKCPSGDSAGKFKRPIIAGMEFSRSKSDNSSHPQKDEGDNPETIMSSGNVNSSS

Row | Compound | % Activation (Edg-1 receptor activation in percent of the activation by 10 μM S1P) [%]
1 | CCCOc1nc(CCc2ccc(Cl)cc2)nc2oc(-c3cccc(F)c3)nc12 [Example 6] | 60
2 | Fc1cccc(-c2nc3c(OCC4CC4)nc(CCc4ccc(Cl)cc4)nc3o2)c1 [Example 7] | 23
3 | CCCOc1nc(C(C)c2ccccc2)nc2oc(-c3cccc(F)c3)nc12 (centres unmarked) [Example 14] | 97
4 | Cc1cccc(-c2nc3c(OCC4CC4)nc(C(C)c4ccccc4)nc3o2)c1 (centres unmarked) [Example 16] | 106

More lines, now with the values ahead:

Row | % Activation (Edg-1 receptor activation in percent of the activation by 10 μM S1P) [%] | Compound
5 | 95 | CCCOc1nc(CN2CCC(F)(F)CC2)nc2oc(-c3cc(F)ccc3Cl)nc12 [Example 22]
6 | 97 | CCCOc1nc(CN2CCCOCC2)nc2oc(-c3cc(F)ccc3Cl)nc12 [Example 23]
7 | 115 | CCCOc1nc(CN2CCOCC2)nc2oc(-c3cc(F)cc(F)c3)nc12 [Example 24]
8 | 117 | CCCOc1nc(CN2CCC(F)(F)CC2)nc2oc(-c3cc(F)cc(F)c3)nc12 [Example 25]
9 | 123 | CCCOc1nc(CN2CCCOCC2)nc2oc(-c3cc(F)cc(F)c3)nc12 [Example 26]
10 | 124 | CCCOc1nc(CN2CCOCC2)nc2oc(-c3cccc(Cl)c3)nc12 [Example 27]
11 | 102 | CCCOc1nc(CN2CCC(F)(F)CC2)nc2oc(-c3cccc(Cl)c3)nc12 [Example 28]
12 | 118 | CCCOc1nc(CN2CCCOCC2)nc2oc(-c3cccc(Cl)c3)nc12 [Example 29]
13 | 114 | CCCOc1nc(CN2CCOCC2)nc2oc(-c3cccc(F)c3)nc12 [Example 30]
14 | 59 | FCCCOc1nc(CN2CCOCC2)nc2oc(-c3cccc(F)c3)nc12 [Example 31]
15 | 42 | FCCOc1nc(CN2CCOCC2)nc2oc(-c3cccc(F)c3)nc12 [Example 32]
16 | 93 | CCCOc1nc(CN2CCC(F)(F)CC2)nc2oc(-c3cccc(F)c3)nc12 [Example 33]
17 | 90 | CCCOc1nc(CN2CCCOCC2)nc2oc(-c3cccc(F)c3)nc12 [Example 34]
18 | 119 | CCCOc1nc(CN2CCOCC2)nc2oc(-c3cccc(OC)c3)nc12 [Example 35]
19 | 127 | CCCOc1nc(CN2CCC(F)(F)CC2)nc2oc(-c3cccc(OC)c3)nc12 [Example 36]
20 | 116 | CCCOc1nc(CN2CCCOCC2)nc2oc(-c3cccc(OC)c3)nc12 [Example 37]
21 | 114 | CCCOc1nc(CN2CCOCC2)nc2oc(-c3cccc(C)c3)nc12 [Example 38]

Same assay, conditions: example compound at 10 μM; relative to 10 μM S1P; GTP-γ-S SPA, human Edg-1 membranes; read-out: % Activation (Edg-1 receptor activation in percent of the activation by 10 μM S1P)

Row | Compound | activation at 10 µM [%]
22 | CCCOc1nc(CN2CCOCC2)nc2oc(-c3cc(F)ccc3Cl)nc12 [Example 1, 2-(2-Chloro-5-fluoro-phenyl)-5-morpholin-4-ylmethyl-7-propoxy-oxazolo[5,4-d]pyrimidine] | 117
23 | CCCOc1nc(CN2CCOCC2)nc2oc(-c3ccco3)nc12 [Example 2, 2-Furan-2-yl-5-morpholin-4-ylmethyl-7-propoxy-oxazolo[5,4-d]pyrimidine] | 80
24 | CCCOc1nc(CN2CCOCC2)nc2oc(-c3ccc(Br)o3)nc12 [Example 3, 2-(5-Bromo-furan-2-yl)-5-morpholin-4-ylmethyl-7-propoxy-oxazolo[5,4-d]pyrimidine] | 113
25 | CCCOc1nc(CN2CCOCC2)nc2oc(-c3cccc(O)c3)nc12 [Example 4, 3-(5-Morpholin-4-ylmethyl-7-propoxy-oxazolo[5,4-d]pyrimidin-2-yl)-phenol] | 105
26 | CCCOc1nc(Cc2ccc(Cl)cc2)nc2oc(-c3cccc(F)c3)nc12 [Example 5, 5-(4-Chloro-benzyl)-2-(3-fluoro-phenyl)-7-propoxy-oxazolo[5,4-d]pyrimidine] | 98
27 | CCCOc1nc(CCc2ccc(OC)cc2)nc2oc(-c3cccc(C)c3)nc12 [Example 8, 5-[2-(4-methoxy-phenyl)-ethyl]-2-(3-methyl-phenyl)-7-propoxy-oxazolo[5,4-d]pyrimidine] | 51
28 | Cc1cccc(-c2nc3c(OCC4CC4)nc(CC(C)(C)c4ccccc4)nc3o2)c1 [Example 9, 7-Cyclopropylmethoxy-5-(2-methyl-2-phenyl-propyl)-2-(3-methyl-phenyl)-oxazolo[5,4-d]pyrimidine] | 37
29 | CCCOc1nc(C2(c3ccc(Cl)cc3)CC2)nc2oc(-c3cccc(C)c3)nc12 [Example 10, 5-[1-(4-Chloro-phenyl]-cyclopropyl]-7-propoxy-2-(3-methyl-phenyl)-oxazolo[5,4-d]pyrimidine] | 66
30 | CCCOc1nc(Cc2ccc(Cl)c(Cl)c2)nc2oc(-c3cccc(C)c3)nc12 [Example 11, 5-(3,4-Dichloro-benzyl)-7-propoxy-2-(3-methyl-phenyl)-oxazolo[5,4-d]pyrimidine] | 39
31 | CCCOc1nc(Cc2ccc(C(F)(F)F)cc2)nc2oc(-c3cccc(F)c3)nc12 [Example 12, 2-(3-Fluoro-phenyl)-7-propoxy-5-(4-trifluoromethyl-benzyl)-oxazolo[5,4-d]pyrimidine] | 65
32 | CCCOc1nc(C(C)c2ccccc2)nc2oc(-c3cccc(C)c3)nc12 (centres unmarked) [Example 13, 5-(1-Phenyl-ethyl)-7-propoxy-2-(3-methyl-phenyl)-oxazolo[5,4-d]pyrimidine] | 119
33 | CCOc1nc(C(C)c2ccccc2)nc2oc(-c3cccc(F)c3)nc12 (centres unmarked) [Example 15, 7-ethoxy-2-(3-fluoro-phenyl)-5-(1-phenyl-ethyl)-oxazolo[5,4-d]pyrimidine] | 104
34 | CCCOc1nc(Cc2ccc(Cl)cc2)nc2oc(-c3cc(C)c(O)c(C)c3)nc12 [Example 17, 4-[5-(4-Chloro-benzyl)-7-propoxy-oxazolo[5,4-d]pyrimidin-2-yl]-2,6-dimethyl-phenol] | 74
35 | CCCOc1nc(Cc2ccc(Cl)cc2)nc2oc(-c3cc(C)c(OCC(O)CO)c(C)c3)nc12 (centres unmarked) [Example 18, 3-{4-[5-(4-Chloro-benzyl)-7-propoxy-oxazolo[5,4-d]pyrimidin-2-yl]-2,6-dimethyl-phenoxy}-propane-1,2-diol] | 128
36 | CCCOc1nc(Cc2ccc(Cl)cc2)nc2oc(-c3cc(C)c(OCCO)c(C)c3)nc12 [Example 19, 2-{4-[5-(4-Chloro-benzyl)-7-propoxy-oxazolo[5,4-d]pyrimidin-2-yl]-2,6-dimethyl-phenoxy}-ethanol] | 102
37 | CCCOc1nc(Cc2ccc(Cl)cc2)nc2oc(-c3cc(C)c(OCC(O)CN)c(C)c3)nc12 (centres unmarked) [Example 20, 1-Amino-3-{4-[5-(4-chloro-benzyl)-7-propoxy-oxazolo[5,4-d]pyrimidin-2-yl]-2,6-dimethyl-phenoxy}-propan-2-ol] | 299
38 | CCCOc1nc(Cc2ccc(Cl)cc2)nc2oc(-c3cccc(N)c3)nc12 [Example 21, 3-[5-(4-Chloro-benzyl)-7-propoxy-oxazolo[5,4-d]pyrimidin-2-yl]-phenylamine] | 71

Source: US8735387B2, “Oxazolopyrimidines as Edg-1 receptor agonists” (Sanofi, priority 2008, dated 2014)
